Measured values taken from ChEMBL document CHEMBL5236589, “Design and Structural Optimization of Orally Bioavailable SOS1 Inhibitors for the Treatment of KRAS-Driven Carcinoma” (J Med Chem, 2022).

Experiments:
[1] = Inhibition of SOS1/KRAS G13D mutant protein-protein interaction in human DLD-1 cells assessed as ERK1/2 phosphorylation measured after 1 hr by homogeneous time-resolved fluorescence (HTRF) method; type: cell-based; conditions: DLD-1, 1 h
SOS1-KRAS = SOS1-KRAS (Homo sapiens, UniProt Q07889); experiment: Inhibition of human recombinant SOS1 (residue 564-1049)/KRAS G12C mutant protein-protein interaction at incubated for 25 degC for 60 mins by homogeneous time-resolved fluorescence (HTRF) method
[2] = Half life in ICR mouse at 20 mg/kg, po by LC-MS/MS analysis; type: ADME, organism-based; conditions: in vivo; for half-life: ICR
[3] = Tmax in ICR mouse at 20 mg/kg, po by LC-MS/MS analysis; type: ADME, organism-based; conditions: in vivo
[4] = Cmax in ICR mouse at 20 mg/kg, po by LC-MS/MS analysis; type: ADME, organism-based; set-up: dose 20 mg/kg, route po; conditions: in vivo
[5] = AUC in ICR mouse at 20 mg/kg, po by LC-MS/MS analysis; type: ADME, organism-based; set-up: dose 20 mg/kg, route po; conditions: in vivo
[6] = MRT in ICR mouse at 20 mg/kg, po by LC-MS/MS analysis; type: ADME, organism-based; conditions: in vivo
[7] = Elimination rate constant in ICR mouse at 20 mg/kg, po by LC-MS/MS analysis; type: ADME, organism-based; conditions: in vivo; for k el: ICR
[8] = Half life in ICR mouse at 10 mg/kg, po by LC-MS/MS analysis; type: ADME, organism-based; conditions: in vivo
[9] = Tmax in ICR mouse at 10 mg/kg, po by LC-MS/MS analysis; type: ADME, organism-based; conditions: in vivo
[10] = Cmax in ICR mouse at 10 mg/kg, po by LC-MS/MS analysis; type: ADME, organism-based; set-up: dose 10 mg/kg, route po; conditions: in vivo
[11] = AUC in ICR mouse at 10 mg/kg, po by LC-MS/MS analysis; type: ADME, organism-based; set-up: dose 10 mg/kg, route po; conditions: in vivo
[12] = MRT in ICR mouse at 10 mg/kg, po by LC-MS/MS analysis; type: ADME, organism-based; conditions: in vivo
[13] = Elimination rate constant in ICR mouse at 10 mg/kg, po by LC-MS/MS analysis; type: ADME, organism-based; conditions: in vivo

Chain of SOS1-KRAS (Q07889 whole entry, looked up, stated change not applied): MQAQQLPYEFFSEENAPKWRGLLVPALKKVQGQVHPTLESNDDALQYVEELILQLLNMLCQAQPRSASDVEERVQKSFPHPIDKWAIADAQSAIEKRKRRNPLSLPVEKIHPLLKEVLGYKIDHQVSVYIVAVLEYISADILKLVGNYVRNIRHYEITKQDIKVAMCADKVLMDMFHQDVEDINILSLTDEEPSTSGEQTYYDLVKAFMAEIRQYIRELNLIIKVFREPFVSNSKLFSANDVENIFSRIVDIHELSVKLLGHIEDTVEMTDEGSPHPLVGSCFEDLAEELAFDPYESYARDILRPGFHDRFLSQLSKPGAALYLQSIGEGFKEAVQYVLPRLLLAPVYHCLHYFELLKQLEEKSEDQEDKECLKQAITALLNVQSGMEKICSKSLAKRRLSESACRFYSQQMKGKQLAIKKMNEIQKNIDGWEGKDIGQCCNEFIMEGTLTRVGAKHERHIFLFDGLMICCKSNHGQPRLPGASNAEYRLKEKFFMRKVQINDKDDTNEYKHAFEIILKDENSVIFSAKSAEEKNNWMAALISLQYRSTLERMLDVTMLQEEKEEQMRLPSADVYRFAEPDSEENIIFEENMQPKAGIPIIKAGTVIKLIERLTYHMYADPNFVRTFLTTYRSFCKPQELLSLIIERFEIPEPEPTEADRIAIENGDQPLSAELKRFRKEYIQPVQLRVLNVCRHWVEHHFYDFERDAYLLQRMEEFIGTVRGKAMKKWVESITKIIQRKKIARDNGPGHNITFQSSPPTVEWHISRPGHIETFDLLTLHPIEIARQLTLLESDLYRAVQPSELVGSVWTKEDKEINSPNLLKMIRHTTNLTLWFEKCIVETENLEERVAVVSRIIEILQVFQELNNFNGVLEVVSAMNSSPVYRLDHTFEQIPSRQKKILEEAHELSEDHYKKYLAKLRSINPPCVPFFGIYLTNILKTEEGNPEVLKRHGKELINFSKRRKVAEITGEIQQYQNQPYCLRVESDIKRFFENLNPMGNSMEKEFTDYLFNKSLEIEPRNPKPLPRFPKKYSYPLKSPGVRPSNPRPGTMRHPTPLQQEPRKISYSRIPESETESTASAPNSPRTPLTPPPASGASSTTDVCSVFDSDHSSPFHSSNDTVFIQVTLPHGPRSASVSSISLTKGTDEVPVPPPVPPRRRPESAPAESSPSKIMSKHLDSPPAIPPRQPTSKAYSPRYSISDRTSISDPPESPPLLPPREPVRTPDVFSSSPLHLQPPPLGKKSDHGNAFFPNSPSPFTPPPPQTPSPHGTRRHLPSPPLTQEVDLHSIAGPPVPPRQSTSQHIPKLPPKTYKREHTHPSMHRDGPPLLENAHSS

Question: Which IC50 [1] does the source give for `Cc1nc(N[C@H](C)c2cccc(C(F)F)c2F)c2cc3c(cc2n1)OC[C@H]1CN(C(=O)C2CC2(F)F)CCN31` (some centres undefined) here?
Answer: Its IC50 is 26 nM.

Question: For `Cc1nc(N[C@H](C)c2cccc(C(F)F)c2F)c2cc3c(cc2n1)OC[C@H]1CN(C(=O)C2(C)CC2)CCN31`, which IC50 [1] is on record?
Answer: Its IC50 is greater than 1000 nM.

Question: What does the source list for `Cc1nc(N[C@H](C)c2cc(N)cc(C(F)(F)F)c2)c2cc3c(cc2n1)OC[C@H]1CN(C2CCOCC2)CCN31`?
Answer: IC50 (SOS1-KRAS): 18 nM; IC50 [1]: 48 nM

Question: For `Cc1nc(N[C@H](C)c2cccc(C(F)F)c2F)c2cc3c(cc2n1)OC[C@H]1CN(C2CCOCC2)CCN31`, which IC50 [1] is on record?
Answer: The IC50 was 57 nM.

Question: For `Cc1nc(N[C@H](C)c2cccc(C(F)F)c2F)c2cc3c(cc2n1)OC[C@H]1CN(C(=O)C2C(C)(C)C2(C)C)CCN31`, which IC50 [1] is on record?
Answer: Its IC50 is 9 nM.

Question: What does the source list for `COCCC(=O)N1CCN2c3cc4c(N[C@H](C)c5cccc(C(F)F)c5F)nc(C)nc4cc3OC[C@H]2C1`?
Answer: IC50 [1]: 9.5 nM; half-life [2]: 3.85 h; Tmax [3]: 2.92 h; Cmax [4]: 674 ng/mL; AUC [5]: 3340 ng·h/mL; MRT [6]: 3.45 h; k el [7]: 5e-05 s⁻¹

Question: For `Cc1nc(N[C@H](C)c2cccc(C(F)F)c2F)c2cc3c(cc2n1)OC[C@H]1CN(C(=O)C2CCO2)CCN31` (some centres undefined), which IC50 [1] is on record?
Answer: Its IC50 is 16 nM.

Question: And the t1/2 ([2]; po, 20 mg/kg)?
Answer: Its t1/2 is 14.3 h.

Question: And the Tmax [3]?
Answer: The Tmax was 5.67 h.

Question: And the Cmax [4]?
Answer: The Cmax was 97.1 ng/mL.

Question: What about the AUC [5] of the same compound?
Answer: The AUC was 534 ng·h/mL.

Question: And the MRT [6]?
Answer: The MRT was 4.55 h.

Question: What about the Kel ([7]; po, 20 mg/kg) of the same compound?
Answer: Its Kel is 0.13 h⁻¹.

Question: What does the source list for `CC(=O)N1CCN2c3cc4c(N[C@H](C)c5cccc(C(F)(F)C(C)(C)O)c5F)nc(C)nc4cc3OC[C@H]2C1`?
Answer: IC50 (SOS1-KRAS): 12.7 nM; IC50 [1]: 10 nM; half-life [8]: 3.24 h; Tmax [9]: 0.625 h; Cmax [10]: 5.03 ng/mL; AUC [11]: 7.7 ng·h/mL; MRT [12]: 1 h; k el [13]: 3.89e-05 s⁻¹

Question: For `Cc1nc(N[C@H](C)c2cccc(C(F)F)c2F)c2cc3c(cc2n1)OC[C@H]1CN(S(C)(=O)=O)CCN31`, which IC50 [1] is on record?
Answer: Its IC50 is 79 nM.

Question: For `Cc1nc(N[C@H](C)c2cccc(C(F)F)c2F)c2cc3c(cc2n1)OC[C@H]1CN(C(=O)C2CC2)CCN31`, which IC50 [1] is on record?
Answer: The IC50 was 367 nM.

Question: With `Cc1nc(N[C@H](C)c2cccc(C(F)F)c2F)c2cc3c(cc2n1)OC[C@H]1CN(C(=O)C2(F)CC2)CCN31` as the compound, how does the IC50 [1] read?
Answer: The IC50 was 1.7 nM.

Question: What about the half-life [2] of the same compound?
Answer: Its half-life is 2.34 h.

Question: What about the Tmax [3] of the same compound?
Answer: Its Tmax is 1.5 h.

Question: And the Cmax [4]?
Answer: Its Cmax is 582 ng/mL.

Question: What about the AUC [5] of the same compound?
Answer: Its AUC is 2100 ng·h/mL.

Question: What about the MRT [6] of the same compound?
Answer: The MRT was 2.59 h.

Question: What about the k el [7] of the same compound?
Answer: Its k el is 8.33e-05 s⁻¹.

Question: With `Cc1nc(N[C@H](C)c2cccc(C(F)F)c2F)c2cc3c(cc2n1)OC[C@H]1CN(C(=O)[C@@H]2CCCN2C)CCN31` as the compound, how does the IC50 [1] read?
Answer: Its IC50 is 104 nM.

Question: What does the source list for `Cc1nc(N[C@H](C)c2cc(N)cc(C(F)(F)F)c2)c2cc3c(cc2n1)OCCO3`?
Answer: IC50 (SOS1-KRAS): 904 nM; IC50 [1]: 690 nM

Question: Which IC50 [1] does the source give for `COC(=O)N1CCN2c3cc4c(N[C@H](C)c5cccc(C(F)F)c5F)nc(C)nc4cc3OC[C@H]2C1` here?
Answer: The IC50 was 22 nM.

Question: With `Cc1nc(N[C@H](C)c2cccc(C(F)F)c2F)c2cc3c(cc2n1)OC[C@H]1CN(C2CN(C)C2)CCN31` as the compound, how does the IC50 [1] read?
Answer: The IC50 was 166 nM.

Question: Which IC50 (SOS1-KRAS) does the source give for `Cc1nc(N[C@H](C)c2cc(N)cc(C(F)(F)F)c2)c2cc3c(cc2n1)OC[C@H]1CN(C2COC2)CCN31` here?
Answer: The IC50 was 15.6 nM.

Question: What about the IC50 [1] of the same compound?
Answer: Its IC50 is 45 nM.

Question: With `CC(=O)N1CCN2c3cc4c(N[C@H](C)c5cccc(C(F)F)c5F)nc(C)nc4cc3OC[C@@H]2C1` as the compound, how does the IC50 (SOS1-KRAS) read?
Answer: The IC50 was 13.8 nM.

Question: What about the IC50 [1] of the same compound?
Answer: The IC50 was 38 nM.

Question: With `Cc1nc(N[C@H](C)c2cccc(C(F)F)c2F)c2cc3c(cc2n1)OC[C@H]1CN(C(C)C)CCN31` as the compound, how does the IC50 [1] read?
Answer: Its IC50 is 168 nM.

Question: For `Cc1nc(N[C@H](C)c2cccc(C(F)F)c2F)c2cc3c(cc2n1)OC[C@H]1CN(C(=O)c2ccn[nH]2)CCN31`, which IC50 [1] is on record?
Answer: Its IC50 is 376 nM.

Question: Which IC50 [1] does the source give for `Cc1nc(N[C@H](C)c2cccc(C(F)F)c2F)c2cc3c(cc2n1)OC[C@H]1CN(C)CCN31` here?
Answer: Its IC50 is 86 nM.

Question: With `Cc1nc(N[C@H](C)c2cccc(C(F)F)c2F)c2cc3c(cc2n1)OC[C@H]1CN(C(=O)[C@@H]2CCOC2)CCN31` as the compound, how does the IC50 [1] read?
Answer: Its IC50 is 21 nM.

Question: And the half-life [2]?
Answer: The half-life was 18 h.

Question: And the Tmax [3]?
Answer: The Tmax was 8 h.

Question: And the Cmax [4]?
Answer: The Cmax was 47 ng/mL.

Question: And the AUC [5]?
Answer: The AUC was 780 ng·h/mL.

Question: What about the MRT [6] of the same compound?
Answer: Its MRT is 9.65 h.

Question: What about the k el [7] of the same compound?
Answer: Its k el is 8.33e-06 s⁻¹.

Question: Which IC50 [1] does the source give for `Cc1nc(N[C@H](C)c2cccc(C(F)F)c2F)c2cc3c(cc2n1)OC[C@H]1CN(C2COC2)CCN31` here?
Answer: The IC50 was 96 nM.

Question: Which IC50 [1] does the source give for `Cc1nc(N[C@H](C)c2cccc(C(F)F)c2F)c2cc3c(cc2n1)OC[C@H]1CN(C(=O)N2CCOCC2)CCN31` here?
Answer: Its IC50 is 9.7 nM.

Question: What about the half-life [2] of the same compound?
Answer: Its half-life is 1.78 h.

Question: What about the Tmax [3] of the same compound?
Answer: Its Tmax is 0.5 h.

Question: And the Cmax [4]?
Answer: The Cmax was 356 ng/mL.

Question: And the AUC [5]?
Answer: Its AUC is 872 ng·h/mL.

Question: And the MRT [6]?
Answer: Its MRT is 2.14 h.

Question: And the k el [7]?
Answer: Its k el is 0.0001 s⁻¹.
